Measured values published in patent publication US20090048190A1, “Antiviral activity and resolution of 2-hydroxymethyl-5(5-fluorocytosin-1-yl)-1,3-oxathiolane” (priority 1990, published 2009).
Read-outs that look alike come from different tables or passages of the source.

Columns and labels:
human PBM cells = details: 10 μM radiolabeled FTC
Experimental: All studies were conducted in duplicate. […] Cells were exposed to the drug for 2, 6, 12, and 24 hours. At these timepoints, the medium was removed and the cells were washed two times with cold Hank's balanced salt solution. Extraction was performed with addition of 0.2 ml of 60% cold methanol/water and stored overnight at −70° C. The following morning, the suspensions were centrifuged and extractions were repeated two times for 0.5 hours at −70° C. The total supernatants (0.6 ml) were lyophilized to dryness. The residues were resuspended in 250 μl of water and aliquots of between 50 and 100 μl were analyzed by HPLC. Quantitation of intracellular parent drug and metabolic derivatives were conducted by HPLC.

HepG2 cells = details: 10 μM [3H]-(±)-FTC
HIV-1 (strain LAV) = assay type: cell-based
Text: It is often desirable to screen a number of racemic mixtures of nucleosides as a preliminary step to determine which warrant further resolution into enantiomerically enriched components and further evaluation of antiviral activity. The ability of nucleosides to inhibit HIV can be measured by various experimental techniques. The technique used herein, and described in detail below, measures the inhibition of viral replication in phytohemagglutinin (PHA) stimulated human peripheral blood mononuclear (PBM) cells infected with HIV-1 (strain LAV). The amount of virus produced is determined by measuring the virus-coded reverse transcriptase enzyme. The amount of enzyme produced is proportional to the amount of virus produced.
A. Three-day-old phytohemagglutinin-stimulated PBM cells (10^6 cells/ml) from hepatitis B and HIV-1 seronegative healthy donors were infected with HIV-1 (strain LAV) at a concentration of about 100 times the 50% tissue culture infectious dose (TICD 50) per ml and cultured in the presence and absence of various concentrations of antiviral compounds.
B. Approximately one hour after infection, the medium, with the compound to be tested (2 times the final concentration in medium) or without compound, was added to the flasks (5 ml; final volume 10 ml). AZT was used as a positive control.
C. The cells were exposed to the virus (about 2×10^5 dpm/ml, as determined by reverse transcriptase assay) and then placed in a CO2 incubator. HIV-1 (strain LAV) was obtained from the Center for Disease Control, Atlanta, Ga. The methods used for culturing the PBM cells, harvesting the virus and determining the reverse transcriptase activity were those described by McDougal et al. (J. Immun. Meth. 76, 171-183, 1985) and Spira et al. (J. Clin. Meth. 25, 97-99, 1987), except that fungizone was not included in the medium (see Schinazi, et al., Antimicrob. Agents Chemother. 32, 1784-1787 (1988); Id., 34:1061-1067 (1990)).
D. On day 6, the cells and supernatant were transferred to a 15 ml tube and centrifuged at about 900 g for 10 minutes. Five ml of supernatant were removed and the virus was concentrated by centrifugation at 40,000 rpm for 30 minutes (Beckman 70.1 Ti rotor). The solubilized virus pellet was processed for determination of the levels of reverse transcriptase. Results are expressed in dpm/ml of sampled supernatant. Virus from smaller volumes of supernatant (1 ml) can also be concentrated by centrifugation prior to solubilization and determination of reverse transcriptase levels.

[1] = Pharmacokinetics after intravenous administration to rats
HIV = assay: microbe, parasite or virus in culture; assay type: cell-based; details: MT4 system
[2] = CSF/serum ratio in rhesus monkeys; assay type: in vivo; details: 33.3 mg/kg, one hour after administration
FIV = assay: Antiretroviral activity in different cell systems, FIV; assay type: cell-based; details: CrFK (61E)
[3] = test system: uninfected human PBM cells
Text: The cells were counted after 6 days using a hemacytometer and the trypan blue exclusion method, as described by Schinazi et al., Antimicrobial Agents and Chemotherapy, 22(3), 499 (1982).

HIV-2 = assay: Antiretroviral activity in different cell systems, HIV-2; assay type: cell-based; details: PBMC (ROD2)
Experimental: Cell lines were obtained from either human donors, AIDS Research and Reference Reagent Program, NIH, Rockville, Md., ATCC, or the Red Cross. The CEM thymidine kinase deficient cells were prepared by sequential passage of CEM cells in the presence of 5-bromo-2′-deoxyuridine.

Compound: Nc1nc(=O)n([C@@H]2CS[C@H](CO)O2)cc1F (racemic) [(±)-FTC, (±)-β-D,L-2-hydroxymethyl-5-(5-fluorocytosin-1-yl)-1,3-oxathiolane]
- toxicity (Vero cells): > 100 µM
- VSS (I.V., 33.3 mg/kg, individual monkeys (RUh, RMi, RJd)): 2.00 L/kg
- F (bioavailability) (P.O., 33.3 mg/kg, individual monkeys (RUh, RMi, RJd)): 80%
- plasma terminal half life (rhesus monkeys, mean of oral and I.V. administration): approximately 1.34±0.18
- uptake in human lymphocytes (human PBM cells): readily taken up
- uptake by HepG2 cells (HepG2 cells): taken up by HepG2 cells in large amounts
- % Inhibition (Corrected) (HIV-1 (strain LAV); 0.0001 μM): 26.6%
- DPM/ml (HIV-1 (strain LAV); 0.0001 μM): 73,755 DPM/ml
- % Inhibition (Corrected) (HIV-1 (strain LAV); 0.005 μM): 16.3%
- DPM/ml (HIV-1 (strain LAV); 0.005 μM): 83,005 DPM/ml
- % Inhibition (Corrected) (HIV-1 (strain LAV); 0.01 μM): 41.3%
- DPM/ml (HIV-1 (strain LAV); 0.01 μM): 60,465 DPM/ml
- % Inhibition (Corrected) (HIV-1 (strain LAV); 0.05 μM): 70.4%
- DPM/ml (HIV-1 (strain LAV); 0.05 μM): 34,120 DPM/ml
- % Inhibition (Corrected) (HIV-1 (strain LAV); 0.1 μM): 92.4%
- DPM/ml (HIV-1 (strain LAV); 0.1 μM): 14,160 DPM/ml
- % Inhibition (Corrected) (HIV-1 (strain LAV); 0.5 μM): 88.1%
- DPM/ml (HIV-1 (strain LAV); 0.5 μM): 18,095 DPM/ml
- % Inhibition (Corrected) (HIV-1 (strain LAV); 1 μM): 99.7%
- DPM/ml (HIV-1 (strain LAV); 1 μM): 7,555 DPM/ml
- % Inhibition (Corrected) (HIV-1 (strain LAV); 5 μM): 99.3%
- DPM/ml (HIV-1 (strain LAV); 5 μM): 7,940 DPM/ml
- % Inhibition (Corrected) (HIV-1 (strain LAV); 10 μM): 101.7%
- DPM/ml (HIV-1 (strain LAV); 10 μM): 5,810 DPM/ml
- EC50 (HIV-1 (strain LAV); PBM cells, read-out: activity in PBM cells): ~10 nM
- EC50 (HIV-1 (strain LAV); enantiomers resolved by HPLC (Example 4), Table 4, read-out: EC50): 18 nM
- EC50 (HIV-1 (strain LAV); enantiomers resolved by method of Example 3, FIG. 6, read-out: EC50): 17 nM
- EC50 (HIV-1 (strain LAV); human PBM cells, HIV-1 strain LAV, Table 3, read-out: Antiviral EC50): 10 nM
- CLT ([1]; 10 mg/kg): 16.5 mL/min/kg
- CLT ([1]; 50 mg/kg): 14.6 mL/min/kg
- MRT ([1]; 50 mg/kg): 48 min
- CLT ([1]; 100 mg/kg): 13.8 mL/min/kg
- IC50 (HIV): 520 nM
- ability to cross the blood-brain barrier [2]: significant amount of active compound passes through the blood-brain barrier
- EC50 (FIV): ≤ 1000 nM
- IC50 [3]: > 100000 nM
- nontoxic at concentrations up to (other cell lines): up to 200 μM
- EC50 (HIV-2): 3.8 nM
- toxicity (CEM cells): > 100 µM
